For assay [1], the target named is EGFR Del19/T790M/C797S (Homo sapiens, UniProt P00533, C797S/DEL746-750/T790M). The assay can be described thus: Biochemical EGFR kinase inhibition assay (Lance Ultra TR-FRET), triple mutant del19/T790M/C797S. In a few lines: (§1)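 Kinase activity is measured by TR-FRET phosphopeptide detection. Compounds span 0.003 μM to 10 μM; the 1 h reaction at room temperature is quenched with EDTA, then labelled antibody (2 nM) is incubated 60 min before reading.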

The target of assay [2] is EGFR L858R/T790M/C797S (Homo sapiens, UniProt P00533, C797S/L858R/T790M). The assay can be described thus: Biochemical EGFR kinase inhibition assay (Lance Ultra TR-FRET), triple mutant L858R/T790M/C797S. In a few lines:
as §1

The target of assay [3] is EGFR Del19/C797S (Homo sapiens, UniProt P00533, C797S/DEL746-750). The assay can be described thus: Biochemical EGFR kinase inhibition assay (Lance Ultra TR-FRET), double mutant del19/C797S. In a few lines: as §1
The target of assay [4] is EGFR L858R/C797S (Homo sapiens, UniProt P00533, C797S/L858R). The assay can be described thus: Biochemical EGFR kinase inhibition assay (Lance Ultra TR-FRET), double mutant L858R/C797S. In short, it runs like this:
as §1

For assay [5], the target named is EGFR wildtype (WT) (Homo sapiens, UniProt P00533). The assay can be described thus: Biochemical EGFR kinase inhibition assay (Lance Ultra TR-FRET), wildtype. In a few lines:
as §1

[6] abbreviates: IC50 Del19/T790M/C797S (nM), 100 μM ATP.
Where [7] appears, read: Km ATP, read-out: IC50 Del19/T790M/C797S (nM), Km ATP.
Where [8] appears, read: IC50 L858R/T790M/C797S (nM), 100 μM ATP.
Setting [9] is: Km ATP, read-out: IC50 L858R/T790M/C797S (nM), Km ATP.
The mark [10] stands for this setting: IC50 Del19/C797S (nM), 100 μM ATP.
Where [11] appears, read: Km ATP, read-out: IC50 Del19/C797S (nM), Km ATP.
[12] abbreviates: IC50 L858R/C797S (nM), 100 μM ATP.
Setting [13] is: Km ATP, read-out: IC50 L858R/C797S (nM), Km ATP.
[14] abbreviates: Km ATP, read-out: IC50 WT (nM), Km ATP.
The mark [15] stands for this setting: ATP at Km, read-out: IC50 Del19/T790M/C797S (nM), Km ATP.
[16] abbreviates: ATP at Km, read-out: IC50 L858R/T790M/C797S (nM), Km ATP.
Setting [17] is: ATP at Km, read-out: IC50 Del19/C797S (nM), Km ATP.
Where [18] appears, read: ATP at Km, read-out: IC50 L858R/C797S (nM), Km ATP.
[19] abbreviates: ATP at Km, read-out: IC50 WT (nM), Km ATP.

Like-named read-outs stand apart in the source and are kept apart here.

Consider twelve molecules from patent publication US11981658B2, “Substituted aminopyridine compounds as EGFR inhibitors” (YUHAN CORPORATION, priority 2021, dated 2024).

EGFR wildtype (WT), sequence (P00533 25-1210): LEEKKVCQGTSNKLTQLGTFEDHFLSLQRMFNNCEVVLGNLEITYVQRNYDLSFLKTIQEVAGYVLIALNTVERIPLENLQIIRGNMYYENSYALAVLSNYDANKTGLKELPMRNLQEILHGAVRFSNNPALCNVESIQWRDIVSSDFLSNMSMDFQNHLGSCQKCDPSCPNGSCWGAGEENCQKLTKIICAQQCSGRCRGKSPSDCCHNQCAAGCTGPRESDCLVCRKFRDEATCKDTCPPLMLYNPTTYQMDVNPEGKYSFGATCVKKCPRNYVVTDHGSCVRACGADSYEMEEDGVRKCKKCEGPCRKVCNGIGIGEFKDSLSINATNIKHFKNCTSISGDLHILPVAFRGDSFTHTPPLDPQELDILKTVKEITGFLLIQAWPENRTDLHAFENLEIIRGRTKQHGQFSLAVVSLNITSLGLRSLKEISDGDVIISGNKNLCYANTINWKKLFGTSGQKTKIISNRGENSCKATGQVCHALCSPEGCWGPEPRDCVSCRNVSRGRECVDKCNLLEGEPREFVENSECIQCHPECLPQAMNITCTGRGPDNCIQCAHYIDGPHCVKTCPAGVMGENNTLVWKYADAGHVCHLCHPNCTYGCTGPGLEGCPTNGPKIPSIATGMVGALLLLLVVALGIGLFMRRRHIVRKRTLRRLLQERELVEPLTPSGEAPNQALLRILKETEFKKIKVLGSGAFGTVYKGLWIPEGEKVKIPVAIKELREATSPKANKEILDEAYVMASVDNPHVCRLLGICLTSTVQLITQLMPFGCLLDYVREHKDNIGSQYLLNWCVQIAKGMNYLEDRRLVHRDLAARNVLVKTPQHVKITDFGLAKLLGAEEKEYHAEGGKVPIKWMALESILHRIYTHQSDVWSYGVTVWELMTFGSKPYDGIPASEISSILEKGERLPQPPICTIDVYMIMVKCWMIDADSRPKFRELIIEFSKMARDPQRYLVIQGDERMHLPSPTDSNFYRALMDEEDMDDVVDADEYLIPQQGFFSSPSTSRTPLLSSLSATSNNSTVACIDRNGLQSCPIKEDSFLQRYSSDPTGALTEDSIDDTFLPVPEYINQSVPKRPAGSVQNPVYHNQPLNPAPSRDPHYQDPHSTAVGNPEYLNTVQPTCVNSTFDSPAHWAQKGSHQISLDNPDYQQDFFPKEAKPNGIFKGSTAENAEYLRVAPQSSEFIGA
EGFR Del19/T790M/C797S, sequence (P00533 with tags, fused parts or gaps DEL746-750/T790M/C797S): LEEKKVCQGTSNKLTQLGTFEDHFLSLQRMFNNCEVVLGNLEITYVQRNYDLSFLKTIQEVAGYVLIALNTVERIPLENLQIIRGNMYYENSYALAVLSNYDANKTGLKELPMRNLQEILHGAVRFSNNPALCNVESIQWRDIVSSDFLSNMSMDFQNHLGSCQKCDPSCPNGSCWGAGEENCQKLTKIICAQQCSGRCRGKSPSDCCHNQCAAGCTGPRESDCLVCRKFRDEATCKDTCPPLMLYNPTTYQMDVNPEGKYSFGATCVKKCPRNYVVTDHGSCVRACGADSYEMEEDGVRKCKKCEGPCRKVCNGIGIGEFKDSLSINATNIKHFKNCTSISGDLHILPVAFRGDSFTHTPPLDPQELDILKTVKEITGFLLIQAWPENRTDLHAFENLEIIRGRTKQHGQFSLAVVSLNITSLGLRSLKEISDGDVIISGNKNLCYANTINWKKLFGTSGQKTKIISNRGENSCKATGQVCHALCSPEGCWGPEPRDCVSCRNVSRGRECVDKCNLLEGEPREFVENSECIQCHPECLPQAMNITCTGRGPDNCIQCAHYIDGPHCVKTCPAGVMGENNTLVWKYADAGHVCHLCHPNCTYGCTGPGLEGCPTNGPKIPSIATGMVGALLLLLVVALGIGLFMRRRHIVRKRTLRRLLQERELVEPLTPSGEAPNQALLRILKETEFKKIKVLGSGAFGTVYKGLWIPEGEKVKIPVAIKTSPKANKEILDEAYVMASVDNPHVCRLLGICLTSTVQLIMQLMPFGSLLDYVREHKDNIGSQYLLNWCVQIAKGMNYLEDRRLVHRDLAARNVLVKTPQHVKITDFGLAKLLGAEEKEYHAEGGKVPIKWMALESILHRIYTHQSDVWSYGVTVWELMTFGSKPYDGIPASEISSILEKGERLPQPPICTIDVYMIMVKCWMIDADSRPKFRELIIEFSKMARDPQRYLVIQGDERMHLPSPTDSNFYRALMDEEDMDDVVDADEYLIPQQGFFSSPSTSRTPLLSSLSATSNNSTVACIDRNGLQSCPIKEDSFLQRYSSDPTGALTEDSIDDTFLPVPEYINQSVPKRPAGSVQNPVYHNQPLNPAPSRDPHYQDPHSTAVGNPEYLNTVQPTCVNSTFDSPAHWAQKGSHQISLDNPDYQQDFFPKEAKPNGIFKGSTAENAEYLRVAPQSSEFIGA
EGFR Del19/C797S, sequence (P00533 with tags, fused parts or gaps DEL746-750/C797S): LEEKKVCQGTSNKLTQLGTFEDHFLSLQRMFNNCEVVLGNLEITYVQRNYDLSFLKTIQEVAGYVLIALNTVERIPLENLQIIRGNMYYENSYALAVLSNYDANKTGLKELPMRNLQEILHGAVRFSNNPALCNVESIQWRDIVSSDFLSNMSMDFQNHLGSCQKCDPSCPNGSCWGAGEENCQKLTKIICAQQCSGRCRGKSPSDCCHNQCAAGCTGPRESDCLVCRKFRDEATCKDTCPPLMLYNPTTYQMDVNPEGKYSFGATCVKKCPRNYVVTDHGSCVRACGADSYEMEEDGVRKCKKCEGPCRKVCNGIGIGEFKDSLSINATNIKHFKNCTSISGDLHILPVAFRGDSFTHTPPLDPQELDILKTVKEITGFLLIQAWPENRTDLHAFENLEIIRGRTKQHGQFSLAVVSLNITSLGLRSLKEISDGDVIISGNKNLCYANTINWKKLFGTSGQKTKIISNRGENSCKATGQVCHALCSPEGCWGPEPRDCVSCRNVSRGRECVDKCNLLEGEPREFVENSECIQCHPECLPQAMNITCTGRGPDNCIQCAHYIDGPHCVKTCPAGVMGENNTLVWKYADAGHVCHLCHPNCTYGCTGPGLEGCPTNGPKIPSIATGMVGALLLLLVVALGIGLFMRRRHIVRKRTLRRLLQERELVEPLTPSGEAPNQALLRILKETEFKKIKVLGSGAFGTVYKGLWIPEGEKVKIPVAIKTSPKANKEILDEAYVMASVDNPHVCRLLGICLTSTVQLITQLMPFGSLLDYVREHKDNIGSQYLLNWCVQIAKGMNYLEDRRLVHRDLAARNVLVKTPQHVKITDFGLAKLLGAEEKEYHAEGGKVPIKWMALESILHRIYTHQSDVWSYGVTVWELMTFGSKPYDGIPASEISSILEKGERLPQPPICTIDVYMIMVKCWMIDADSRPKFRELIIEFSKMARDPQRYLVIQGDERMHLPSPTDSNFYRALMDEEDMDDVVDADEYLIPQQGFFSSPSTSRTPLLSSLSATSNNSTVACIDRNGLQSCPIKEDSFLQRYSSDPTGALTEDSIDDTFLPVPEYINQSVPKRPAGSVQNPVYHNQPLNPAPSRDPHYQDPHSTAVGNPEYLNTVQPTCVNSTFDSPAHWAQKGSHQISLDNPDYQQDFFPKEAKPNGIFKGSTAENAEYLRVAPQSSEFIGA
EGFR L858R/T790M/C797S, sequence (P00533 25-1210 T790M/C797S/L858R): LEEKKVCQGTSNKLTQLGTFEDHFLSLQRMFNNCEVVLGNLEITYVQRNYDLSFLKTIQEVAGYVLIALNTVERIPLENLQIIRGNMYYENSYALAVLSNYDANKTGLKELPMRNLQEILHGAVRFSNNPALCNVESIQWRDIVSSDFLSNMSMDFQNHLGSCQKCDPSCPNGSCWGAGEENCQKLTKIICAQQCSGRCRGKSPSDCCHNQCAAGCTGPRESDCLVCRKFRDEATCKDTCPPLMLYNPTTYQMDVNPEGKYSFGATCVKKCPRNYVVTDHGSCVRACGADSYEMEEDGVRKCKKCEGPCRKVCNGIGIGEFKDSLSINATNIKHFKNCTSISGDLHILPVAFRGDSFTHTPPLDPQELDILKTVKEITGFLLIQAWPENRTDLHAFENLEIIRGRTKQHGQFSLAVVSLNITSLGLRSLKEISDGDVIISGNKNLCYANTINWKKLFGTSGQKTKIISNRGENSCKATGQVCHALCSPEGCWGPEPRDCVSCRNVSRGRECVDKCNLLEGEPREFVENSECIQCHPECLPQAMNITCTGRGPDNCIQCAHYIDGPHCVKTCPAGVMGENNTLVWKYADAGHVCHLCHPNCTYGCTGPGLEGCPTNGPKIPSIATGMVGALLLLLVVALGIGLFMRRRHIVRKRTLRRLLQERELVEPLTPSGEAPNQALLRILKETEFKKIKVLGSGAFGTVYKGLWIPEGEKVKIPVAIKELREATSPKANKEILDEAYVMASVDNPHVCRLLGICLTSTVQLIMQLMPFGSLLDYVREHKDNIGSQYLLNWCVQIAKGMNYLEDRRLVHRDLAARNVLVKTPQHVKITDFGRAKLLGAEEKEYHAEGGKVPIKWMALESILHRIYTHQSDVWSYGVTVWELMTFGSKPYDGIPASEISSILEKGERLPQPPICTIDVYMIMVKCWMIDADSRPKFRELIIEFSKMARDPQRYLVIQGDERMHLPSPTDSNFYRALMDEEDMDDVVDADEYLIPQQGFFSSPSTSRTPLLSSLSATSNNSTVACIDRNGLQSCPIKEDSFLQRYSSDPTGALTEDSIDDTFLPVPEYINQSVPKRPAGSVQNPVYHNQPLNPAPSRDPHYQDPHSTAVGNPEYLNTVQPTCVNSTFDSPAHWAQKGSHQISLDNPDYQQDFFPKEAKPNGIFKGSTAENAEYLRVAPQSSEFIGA

Regarding `CC1OCCC1C#Cc1cnc(Nc2ccnc(-c3cnn(S(=O)(=O)C4CC4)c3)n2)cc1NC1CCC(O)CC1` (centres unmarked) [Example 433, (1 s,4s)-4-((2-((2-(1-(cyclopropylsulfonyl)-1H-pyrazol-4-yl)pyrimidin-4-yl)amino)-5-((2-methyltetrahydrofuran-3-yl)ethynyl)pyridin-4-yl)amino)cyclohexan-1-ol], the IC50 in assay [1] (setting [6]) is 0.5 nM; in assay [1] (setting [7]) it was 0.4 nM; in assay [2] (setting [8]) it was 0.7 nM; in assay [2] (setting [9]), 0.2 nM; in assay [3] (setting [10]), 3.2 nM; in assay [3] (setting [11]), 1 nM. In addition, the IC50 in assay [4] (setting [12]) came out at 90.8 nM; in assay [4] (setting [13]), 4 nM; in assay [5] (IC50 WT (nM), 100 μM ATP), 8720 nM; in assay [5] (setting [14]), 7.7 nM.

For `CN(C)CCNC1CCN(c2cc(Nc3ccnc(-c4cnn(S(=O)(=O)C5CC5)c4)n3)ncc2C#Cc2cnn(C)c2)CC1` [Example 133, N^1-(1-(2-((2-(1-(Cyclopropylsulfonyl)-1H-pyrazol-4-yl)pyrimidin-4-yl)amino)-5-((1-methyl-1H-pyrazol-4-yl)ethynyl)pyridin-4-yl)piperidin-4-yl)-N^2,N^2-dimethylethane-1,2-diamine], the IC50 turned out to be 0.3 nM in assay [1] (setting [6]); 0.4 nM in assay [2] (setting [8]); 2.4 nM in assay [3] (setting [10]); 3.5 nM in assay [4] (setting [12]); 3840 nM in assay [5] (IC50 WT (nM), 100 μM ATP).

In the case of `Cn1cc(C#Cc2cnc(Nc3ccnc(-c4cnn(S(=O)(=O)C5CC5)c4)n3)cc2N2CCC(N3CC(F)(F)C3)CC2)cn1` [Example 128, 2-(1-(Cyclopropylsulfonyl)-1H-pyrazol-4-yl)-N-(4-(4-(3,3-difluoroazetidin-1-yl)piperidin-1-yl)-5-((1-methyl-1H-pyrazol-4-yl)ethynyl)pyridin-2-yl)pyrimidin-4-amine], the IC50 was 7.1 nM in assay [1] (setting [6]); 4.8 nM in assay [2] (setting [8]); 29.5 nM in assay [3] (setting [10]); 73 nM in assay [4] (setting [12]); over 10000 nM in assay [5] (IC50 WT (nM), 100 μM ATP).

Regarding `CN1CCN(Cc2ccc(C#Cc3cnc(Nc4ccnc(-c5cnn(S(=O)(=O)C6CC6)c5)n4)cc3N3CCC(C)(CO)CC3)cn2)CC1` [Example 279, (1-(2-((2-(1-(Cyclopropylsulfonyl)-1H-pyrazol-4-yl)pyrimidin-4-yl)amino)-5-((6-((4-methylpiperazin-1-yl)methyl)pyridin-3-yl)ethynyl)pyridin-4-yl)-4-methylpiperidin-4-yl)methanol], the IC50 in assay [1] (setting [15]) amounted to 0.6 nM; in assay [1] (setting [6]) it was 0.7 nM; in assay [2] (setting [16]) it was 0.1 nM; in assay [2] (setting [8]), 0.5 nM; in assay [3] (setting [17]), 0.2 nM; in assay [3] (setting [10]), 0.6 nM. Moreover, the IC50 in assay [4] (setting [18]) came to 0.6 nM; in assay [4] (setting [12]), 0.6 nM; in assay [5] (setting [19]) it was 0.6 nM; in assay [5] (IC50 WT (nM), 100 μM ATP) it was 111 nM.

For the molecule `O=S(=O)(C1CC1)n1cc(-c2nccc(Nc3cc(N4CCC(CCO)CC4)c(C#Cc4cnn(CCF)c4)cn3)n2)cn1` [Example 17, 2-(1-(2-((2-(1-(Cyclopropylsulfonyl)-1H-pyrazol-4-yl)pyrimidin-4-yl)amino)-5-((1-(2-fluoroethyl)-1H-pyrazol-4-yl)ethynyl)pyridin-4-yl)piperidin-4-yl)ethan-1-ol], the IC50 in assay [1] (setting [6]) is 2 nM; in assay [2] (setting [8]), 6.1 nM; in assay [3] (setting [10]) it was 10.3 nM; in assay [4] (setting [12]) it was 53.3 nM; in assay [5] (IC50 WT (nM), 100 μM ATP), over 10000 nM.

On to `O=S(=O)(C1CC1)n1cc(-c2nccc(Nc3cc(N[C@H]4CC[C@@H](O)CC4)c(C#Cc4cnn(CCF)c4)cn3)n2)cn1` [Example 42, (1s,4s)-4-((2-((2-(1-(Cyclopropylsulfonyl)-1H-pyrazol-4-yl)pyrimidin-4-yl)amino)-5-((1-(2-fluoroethyl)-1H-pyrazol-4-yl)ethynyl)pyridin-4-yl)amino)cyclohexan-1-ol], for which the IC50 in assay [1] (setting [6]) was 1.1 nM; in assay [2] (setting [8]), 1.2 nM; in assay [3] (setting [10]) it was 3.2 nM; in assay [4] (setting [12]) it was 11.5 nM; in assay [5] (IC50 WT (nM), 100 μM ATP), over 10000 nM.

`CC1(CO)CCN(c2cc(Nc3ccnc(-c4cnn(S(=O)(=O)C5CC5)c4)n3)ncc2C#CC2CCO[C@H]2C(F)(F)F)CC1` (stereo partly drawn) [Example 421, (1-(2-((2-(1-(Cyclopropylsulfonyl)-1H-pyrazol-4-yl)pyrimidin-4-yl)amino)-5-(((2R)-2-(trifluoromethyl)tetrahydrofuran-3-yl)ethynyl)pyridin-4-yl)-4-methylpiperidin-4-yl)methanol]: the IC50 came to 1.8 nM in assay [1] (setting [6]); 1.5 nM in assay [1] (setting [7]); 2.3 nM in assay [2] (setting [8]); 0.8 nM in assay [2] (setting [9]); 5.8 nM in assay [3] (setting [10]); 4 nM in assay [3] (setting [11]). In addition, the IC50 was 117 nM in assay [4] (setting [12]); 17.2 nM in assay [4] (setting [13]); over 10000 nM in assay [5] (IC50 WT (nM), 100 μM ATP); 35.1 nM in assay [5] (setting [14]).

As to `CN(C)Cc1ccc(CNc2cc(Nc3ccnc(-c4cnn(S(=O)(=O)C5CC5)c4)n3)ncc2C#Cc2cnn(C)c2)cc1` [Example 50, N^2-(2-(1-(Cyclopropylsulfonyl)-1H-pyrazol-4-yl)pyrimidin-4-yl)-N^4-(4-((dimethylamino)methyl)benzyl)-5-((1-methyl-1H-pyrazol-4-yl)ethynyl)pyridine-2,4-diamine], the IC50 in assay [1] (Km ATP, read-out: IC50 Del19/T790M/C797S (nM) Km ATP) amounted to 0.9 nM; in assay [2] (Km ATP, read-out: IC50 L858R/T790M/C797S (nM) Km ATP) it was 4.5 nM; in assay [3] (Km ATP, read-out: IC50 Del19/C797S (nM) Km ATP) it was 128 nM; in assay [4] (Km ATP, read-out: IC50 L858R/C797S (nM) Km ATP) it was 130 nM; in assay [5] (Km ATP, read-out: IC50 WT (nM) Km ATP), 362 nM.

In the case of `CN(C)CC1(O)CCN(c2cc(Nc3ccnc(-c4cnn(S(=O)(=O)C5CC5)c4)n3)ncc2C#Cc2cnn(C3CC3)c2)CC1` [Example 316, 1-(5-((1-Cyclopropyl-1H-pyrazol-4-yl)ethynyl)-2-((2-(1-(cyclopropylsulfonyl)-1H-pyrazol-4-yl)pyrimidin-4-yl)amino)pyridin-4-yl)-4-((dimethylamino)methyl)piperidin-4-ol], the IC50 in assay [1] (setting [6]) is 4.7 nM; in assay [2] (setting [8]) it was 5.8 nM; in assay [3] (setting [10]), 56.7 nM; in assay [4] (setting [12]) it was 72.8 nM; in assay [5] (IC50 WT (nM), 100 μM ATP) it was over 10000 nM.

With `O=S(=O)(C1CC1)n1cc(-c2nccc(Nc3cc(N4CCC(CCO)CC4)c(C#Cc4cnn(C5CC5(F)F)c4)cn3)n2)cn1` (centres unmarked) [Example 84, 2-(1-(2-((2-(1-(Cyclopropylsulfonyl)-1H-pyrazol-4-yl)pyrimidin-4-yl)amino)-5-((1-(2,2-difluorocyclopropyl)-1H-pyrazol-4-yl)ethynyl)pyridin-4-yl)piperidin-4-yl)ethan-1-ol], the IC50 in assay [1] (setting [6]) is 3.3 nM; in assay [2] (setting [8]) it was 6.7 nM; in assay [3] (setting [10]), 7.2 nM; in assay [4] (setting [12]), 33 nM; in assay [5] (IC50 WT (nM), 100 μM ATP), over 10000 nM.

For `CC1(O)CCN(c2cc(Nc3ccnc(-c4cnn(S(=O)(=O)C5CC5)c4)n3)ncc2C#CC2(C)CC2)CC1` [Example 404, 1-(2-((2-(1-(Cyclopropylsulfonyl)-1H-pyrazol-4-yl)pyrimidin-4-yl)amino)-5-((1-methylcyclopropyl)ethynyl)pyridin-4-yl)-4-methylpiperidin-4-ol], the IC50 in assay [1] (setting [6]) came out at 1.7 nM; in assay [2] (setting [8]) it was 2.9 nM; in assay [3] (setting [10]), 3.6 nM; in assay [3] (setting [11]) it was 5.3 nM; in assay [4] (setting [12]), 55.6 nM; in assay [4] (setting [13]), 2.7 nM. In addition, the IC50 in assay [5] (IC50 WT (nM), 100 μM ATP) amounted to 9350 nM; in assay [5] (setting [14]), 45.8 nM.

In the case of `CN(C)CCC1CCN(c2cc(Nc3ccnc(-c4cnn(S(=O)(=O)C5CC5)c4)n3)ncc2C#Cc2cnn(CC(F)F)c2)CC1` [Example 303, 2-(1-(Cyclopropylsulfonyl)-1H-pyrazol-4-yl)-N-(5-((1-(2,2-difluoroethyl)-1H-pyrazol-4-yl)ethynyl)-4-(4-(2-(dimethylamino)ethyl)piperidin-1-yl)pyridin-2-yl)pyrimidin-4-amine], the IC50 came to 0.1 nM in assay [1] (setting [15]); 0.3 nM in assay [1] (setting [6]); 0.1 nM in assay [2] (setting [16]); 0.2 nM in assay [2] (setting [8]); 0.4 nM in assay [3] (setting [17]); 0.3 nM in assay [3] (setting [10]). For the same molecule, the IC50 in assay [4] (setting [18]) came out at 0.6 nM; in assay [4] (setting [12]), 3.4 nM; in assay [5] (setting [19]), 1.4 nM; in assay [5] (IC50 WT (nM), 100 μM ATP), 206 nM.
